Source: patent US20250092056A1, “URACIL DERIVATIVES HAVING VIRUS REPLICATION INHIBITORY ACTIVITY AND PHARMACEUTICAL COMPOSITION COMPRISING THE SAME” (Shionogi & Co., Ltd., priority 2022, published 2025)
Read-outs that look alike come from different tables or passages of the source.

Tests used:
SARS-CoV-2 = assay: Cytopathic effect (CPE) suppression effect confirmation test using HEK293T/ACE2-TMPRSS2 cells; format: cell-based; settings: Severe acute respiratory syndrome coronavirus 2, HEK-293T
[1] = target: Recombinant SARS-CoV-2 3CL Protease (Severe acute respiratory syndrome coronavirus 2 (2019-nCoV) (SARS-CoV-2), UniProt P0DTD1); assay: biochemical; format: biochemical; settings: 50% SARS-CoV-2 3CL protease inhibitory concentration; read-out: IC50
[2] = 50% SARS-CoV-2 infected cell death inhibitory concentration, HEK293T/ACE2-TMPRSS2 cells, read-out: EC50
[3] = 72 h, read-out: EC50 (50% SARS-CoV-2 infected cell death inhibitory concentration), class, HEK293T/ACE2-TMPRSS2 cells, CPE suppression, CellTiter-Glo 2.0 after 3 days culture
[4] = 72 h, read-out: EC50 (50% SARS-CoV-2 infected cell death inhibitory concentration), HEK293T/ACE2-TMPRSS2 cells, CPE suppression, CellTiter-Glo 2.0 after 3 days culture
[5] = 72 h, HEK293T/ACE2-TMPRSS2 cells, CPE suppression, CellTiter-Glo 2.0 after 3 days culture, read-out: EC50 (50% SARS-CoV-2 infected cell death inhibitory concentration), class

| Structure (SMILES) | EC50 (SARS-CoV-2; [2]) | IC50 [1] | EC50 (SARS-CoV-2; [3]) | EC50 (SARS-CoV-2; [4]) | EC50 (SARS-CoV-2; [5]) |
| --- | --- | --- | --- | --- | --- |
| N#CCn1c(N2CC3(C2)CC(F)(F)C3)c(-c2ccc(F)c(C#N)c2)c(=O)n(-c2cncc(Cl)c2)c1=O [Compound I-372] | < 100 nM | < 10 nM |  |  |  |
| Cc1cncc(-n2c(=O)c(-c3ccc(F)c(Cl)c3)c(-c3ccc(C4CC4)cc3)n(CC#N)c2=O)c1 [Compound I-071] |  | < 10 nM | < 100 nM |  |  |
| Cc1cncc(-n2c(=O)c(Cc3cc(F)c(F)c(F)c3)c(N3CC[C@@H](C(N)=O)C3)n(CC#N)c2=O)c1 [Compound I-096] |  | < 10 nM | < 100 nM |  |  |
| N#CCn1c(N2CC(O)(c3ncccn3)C2)c(-c2ccc(F)c(Cl)c2)c(=O)n(-c2cncc(C(F)(F)F)c2)c1=O [Compound I-261] |  | 18 nM |  | 34.5 nM |  |
| COc1cnnc(-n2c(=O)c(-c3ccc(F)c(Cl)c3)c(N3CC4(C3)CC(F)(F)C4)n(CC#N)c2=O)c1 [Compound I-215] | < 100 nM | < 10 nM |  |  |  |
| N#CCn1c(N2CC[C@H](C(=O)N3CC(F)(F)C3)C2)c(-c2ccc(F)c(Cl)c2)c(=O)n(-c2cncc(Cl)c2)c1=O [Compound I-235] | < 100 nM | < 10 nM |  |  |  |
| N#CCn1c(N2CC3(C2)CC(F)(F)C3)c(-c2ccc(F)c(Cl)c2)c(=O)n(-c2cncc(I)c2)c1=O [Compound I-363] | < 100 nM | < 10 nM |  |  |  |
| Cc1cncc(-n2c(=O)c(-c3ccc(F)c(Cl)c3)c(-c3nc4ccccc4s3)n(CC#N)c2=O)c1 [Compound I-120] |  | < 10 nM | < 100 nM |  |  |
| CC(C)(O)CCc1c(-c2ccc(F)c(Cl)c2)c(=O)n(-c2cncc(C#N)c2)c(=O)n1CC#N [Compound I-414] | < 100 nM | < 10 nM |  |  |  |
| CC1(C)CCN(c2c(-c3ccc(F)c(Cl)c3)c(=O)n(-c3cc4n(c(=O)c3)CCC4)c(=O)n2CC#N)CC1 [Compound I-166] |  | > 100 nM | 1000 to 5000 nM |  |  |
| Cc1cncc(-n2c(=O)c(Cc3cc(F)c(F)c(F)c3)c(N3CCC(C)(O)CC3)n(CC#N)c2=O)c1 [Compound I-109] |  | < 10 nM | < 100 nM |  |  |
| C[C@@H](C#N)n1c(N2CC[C@@](O)(C(F)F)C2)c(-c2ccc(F)c(C(F)F)c2)c(=O)n(-c2cncc(C#N)c2)c1=O (single isomer, unassigned) [Compound I-432] | < 100 nM | < 10 nM |  |  |  |
| N#CCn1c(-c2ccc(C(F)F)nc2)c(-c2ccc(F)c(Cl)c2)c(=O)n(-c2cncc(Cl)c2)c1=O [Compound I-387] | < 100 nM | < 10 nM |  |  |  |
| N#CCn1c(N2CC(C(F)(F)F)C2)c(-c2ccc(F)c(Cl)c2)c(=O)n(-c2cncc(C#N)c2)c1=O [Compound I-310] | < 100 nM | < 10 nM |  |  |  |
| N#CCc1cncc(-n2c(=O)c(-c3ccc(F)c(Cl)c3)c(N3CC4(C3)CC(F)(F)C4)n(CC#N)c2=O)n1 [Compound I-209] | < 100 nM | < 10 nM |  |  |  |
| Cc1cncc(-n2c(=O)c(Cc3cc(F)c(F)c(F)c3)c(N3CCC(C(F)(F)F)C3)n(CC#N)c2=O)c1 (racemic) [Compound I-113] |  | < 10 nM | < 100 nM |  |  |
| C[C@@H](C#N)n1c(N2CCC(F)(F)CC2)c(-c2ccc(F)c(Cl)c2)c(=O)n(-c2cncc(Cl)c2)c1=O (single isomer, unassigned) [Compound I-386] | < 100 nM | < 10 nM |  |  |  |
| N#CCn1c(N2CC3(CCOC3)C2)c(-c2ccc(F)c(Cl)c2)c(=O)n(-c2cncc(Cl)c2)c1=O [Compound I-181] |  | < 10 nM | < 100 nM |  |  |
| N#CCn1c(N2CCCO2)c(-c2ccc(F)c(Cl)c2)c(=O)n(-c2cncc(Cl)c2)c1=O [Compound I-242] | < 100 nM | 10 to 100 nM |  |  |  |
| N#CCn1c(N2CC3CNC(=O)C3C2)c(-c2ccc(F)c(Cl)c2)c(=O)n(-c2cncc(Cl)c2)c1=O (racemic) [Compound I-062] |  | < 10 nM | < 100 nM |  |  |
| Cc1cncc(-n2c(=O)c(Cc3cc(F)c(F)c(F)c3)c(N3CCCC3)n(CC#N)c2=O)c1 [Compound I-203] |  | 10 to 100 nM |  |  | < 100 nM |
| Cc1cncc(-n2c(=O)c(Cc3cc(F)c(F)c(F)c3)c(N3CCC(C)(F)C3)n(CC#N)c2=O)c1 (racemic) [Compound I-115] |  | < 10 nM | < 100 nM |  |  |
| Cc1cc(-n2c(=O)c(-c3cc(F)c(F)c(Cl)c3)c(N3CC4(CCOCC4)C3)n(CC#N)c2=O)cc(=O)[nH]1 [Compound I-032] |  | < 10 nM | 100 to 1000 nM |  |  |
| Cc1cncc(-n2c(=O)c(-c3ccc(F)c(Cl)c3)c(N3CC4(C3)CC(F)(F)C4)n(CC#N)c2=O)n1 [Compound I-198] |  | < 10 nM | < 100 nM |  |  |
| N#CCn1c(N2CCC(F)(F)CC2)c(-c2cc(O)cc(Cl)c2)c(=O)n(-c2cncc(Cl)c2)c1=O [Compound I-331] | < 100 nM | < 10 nM |  |  |  |
| C[C@H](C#N)n1c(N2CC(C(C)(C)O)C2)c(-c2ccc(F)c(Cl)c2)c(=O)n(-c2cncc(Cl)c2)c1=O (single isomer, unassigned) [Compound I-288] | < 100 nM | < 10 nM |  |  |  |

| Structure (SMILES) | EC50 (SARS-CoV-2; [2]) | IC50 [1] | EC50 (SARS-CoV-2; [3]) | EC50 (SARS-CoV-2; [4]) | EC50 (SARS-CoV-2; [5]) |
| --- | --- | --- | --- | --- | --- |
| Cc1c(-c2ccc(F)c(Cl)c2)c(=O)n(-c2cncc(Cl)c2)c(=O)n1CC(N)=O [Compound I-441] | < 100 nM | 10 to 100 nM |  |  |  |
| N#CCn1c(N2CC(C(F)(F)F)C2)c(-c2ccc(F)c(Cl)c2)c(=O)n(-c2cncc(F)c2)c1=O [Compound I-295] | < 100 nM | < 10 nM |  |  |  |
| N#CCn1c(N2Cc3ccccc3C2)c(Cc2cc(F)c(F)c(F)c2)c(=O)n(C2CCNC(=O)C2)c1=O (racemic) [Compound I-155] |  | > 100 nM | 1000 to 5000 nM |  |  |
| N#CCn1c(N2CC(OC(F)F)C2)c(-c2ccc(F)c(F)c2)c(=O)n(-c2cncc(Cl)c2)c1=O [Compound I-319] | < 100 nM | < 10 nM |  |  |  |
| COc1cncc(-n2c(=O)c(-c3ccc(F)c(Cl)c3)c(N3CC4(C3)CC(F)(F)C4)n(CC#N)c2=O)n1 [Compound I-260] | < 100 nM | < 10 nM |  |  |  |
| N#CCn1c(N2CC[C@](O)(C(F)F)C2)c(-c2ccc(F)c(Cl)c2)c(=O)n(-c2cncc(C#N)c2)c1=O [Compound I-400] | < 100 nM | < 10 nM |  |  |  |
| CC(C)(O)Cc1c(-c2ccc(F)c(Cl)c2)c(=O)n(-c2cncc(Cl)c2)c(=O)n1CC#N [Compound I-308] | < 100 nM | < 10 nM |  |  |  |
| Cc1cncc(-n2c(=O)c(Cc3cc(F)c(F)c(F)c3)c(-c3ccc(C)c(C)c3)n(C(C)(C)C#N)c2=O)c1 [Compound I-065] |  | < 10 nM | < 100 nM |  |  |
| N#CCn1c(N2CC(F)(C3CC3)C2)c(-c2ccc(F)c(Cl)c2)c(=O)n(-c2cnc3cc(F)ccn23)c1=O [Compound I-151] |  | < 10 nM | < 100 nM |  |  |
| CC1(C)CN(c2c(-c3cccc(C#N)c3)c(=O)n(-c3cncc(Cl)c3)c(=O)n2CC#N)C1 [Compound I-175] |  | < 10 nM | < 100 nM |  |  |
| Cc1cncc(-n2c(=O)c(Cc3cc(F)c(F)c(F)c3)c(N3CCC(C(F)F)CC3)n(CC#N)c2=O)c1 [Compound I-118] |  | < 10 nM | < 100 nM |  |  |
| N#CCn1c(N2CCC(O)(C(F)(F)F)CC2)c(-c2ccc(F)c(Cl)c2)c(=O)n(-c2cncc(Cl)c2)c1=O [Compound I-087] |  | < 10 nM | < 100 nM |  |  |
| CC(C)N1CCN(c2c(-c3ccc(F)c(Cl)c3)c(=O)n(-c3cncc(Cl)c3)c(=O)n2CC#N)CC1=O [Compound I-223] | < 100 nM | < 10 nM |  |  |  |
| N#CCn1c(N2CC3(CCOC3)C2)c(Cc2cc(F)c(F)c(F)c2)c(=O)n(-c2cncc(Cl)c2)c1=O [Compound I-059] |  | < 10 nM | < 100 nM |  |  |
| CC(C)(O)C1CN(c2c(-c3ccc(F)c(Cl)c3)c(=O)n(-c3cncc(Cl)c3)c(=O)n2CC#N)C1 [Compound I-072] |  | 0.66 nM |  | 5.21 nM |  |
| N#CCn1c(N2CC3(CCOC3)C2)c(-c2cc(F)cc(Cl)c2)c(=O)n(-c2cncc(Cl)c2)c1=O [Compound I-180] |  | < 10 nM | < 100 nM |  |  |
| N#CCn1c(N2CCOC2=O)c(-c2ccc(F)c(Cl)c2)c(=O)n(-c2cncc(Cl)c2)c1=O [Compound I-243] | 100 to 1000 nM | > 100 nM |  |  |  |
| N#CCn1c(N2Cc3ccccc3C2)c(Cc2cc(F)c(F)c(F)c2)c(=O)n(-c2nnc3ccccn23)c1=O [Compound I-156] |  | 10 to 100 nM |  |  | < 100 nM |
| Cc1cncc(-n2c(=O)c(Cc3cc(F)c(F)c(F)c3)c(N3CCCC(C(F)(F)F)C3)n(CC#N)c2=O)c1 (racemic) [Compound I-097] |  | < 10 nM | < 100 nM |  |  |
| CC1(C)CCN(c2c(-c3cccc(C#N)c3)c(=O)n(-c3cncc(Cl)c3)c(=O)n2CC#N)CC1 [Compound I-176] |  | < 10 nM | < 100 nM |  |  |
| N#CCn1c(N2CC(O)(C(F)F)C2)c(-c2ccc(F)c(Cl)c2)c(=O)n(-c2cncc(OCF)n2)c1=O [Compound I-411] | < 100 nM | < 10 nM |  |  |  |
| N#CCn1c(N2CC3(CCOC3)C2)c(Cc2cc(F)c(F)c(F)c2)c(=O)n(-c2cnc3cccnn23)c1=O [Compound I-144] |  | > 100 nM | 100 to 1000 nM |  |  |
| N#CCn1c(N2CCC(F)(F)CC2)c(-c2ccc(F)c(F)c2)c(=O)n(-c2cncc(Cl)c2)c1=O [Compound I-401] | < 100 nM | < 10 nM |  |  |  |
| N#CCn1c(N2CC[C@@](O)(C(F)F)C2)c(-c2ccc(F)c(Cl)c2)c(=O)n(-c2cncc(Cl)c2)c1=O (single isomer, unassigned) [Compound I-238] |  | 0.97 nM |  | 4.62 nM |  |
| Cn1c(-n2c(=O)c(Cc3cc(F)c(F)c(F)c3)c(N3Cc4ccccc4C3)n(CC#N)c2=O)cc(=O)n1C [Compound I-157] |  | > 100 nM | 1000 to 5000 nM |  |  |
